The IC50 is the concentration at which inhibition is half-maximal. As a reminder, the EC50 is the midpoint of the concentration-response curve. High values mean lower potency in that assay, low ones higher potency in that assay. What is called Emax is the maximal effect, on the per cent scale that the assay sets.

12 molecules from ChEMBL document CHEMBL4145686, “Discovery of a Potent and Selective Steroidal Glucocorticoid Receptor Antagonist (ORIC-101)” (J Med Chem, 2018) can be followed below.

Type in all cases: cell-based
In data set [1] the target is T1, Glucocorticoid receptor (Homo sapiens, UniProt P04150).
T1 sequence (P04150 whole entry): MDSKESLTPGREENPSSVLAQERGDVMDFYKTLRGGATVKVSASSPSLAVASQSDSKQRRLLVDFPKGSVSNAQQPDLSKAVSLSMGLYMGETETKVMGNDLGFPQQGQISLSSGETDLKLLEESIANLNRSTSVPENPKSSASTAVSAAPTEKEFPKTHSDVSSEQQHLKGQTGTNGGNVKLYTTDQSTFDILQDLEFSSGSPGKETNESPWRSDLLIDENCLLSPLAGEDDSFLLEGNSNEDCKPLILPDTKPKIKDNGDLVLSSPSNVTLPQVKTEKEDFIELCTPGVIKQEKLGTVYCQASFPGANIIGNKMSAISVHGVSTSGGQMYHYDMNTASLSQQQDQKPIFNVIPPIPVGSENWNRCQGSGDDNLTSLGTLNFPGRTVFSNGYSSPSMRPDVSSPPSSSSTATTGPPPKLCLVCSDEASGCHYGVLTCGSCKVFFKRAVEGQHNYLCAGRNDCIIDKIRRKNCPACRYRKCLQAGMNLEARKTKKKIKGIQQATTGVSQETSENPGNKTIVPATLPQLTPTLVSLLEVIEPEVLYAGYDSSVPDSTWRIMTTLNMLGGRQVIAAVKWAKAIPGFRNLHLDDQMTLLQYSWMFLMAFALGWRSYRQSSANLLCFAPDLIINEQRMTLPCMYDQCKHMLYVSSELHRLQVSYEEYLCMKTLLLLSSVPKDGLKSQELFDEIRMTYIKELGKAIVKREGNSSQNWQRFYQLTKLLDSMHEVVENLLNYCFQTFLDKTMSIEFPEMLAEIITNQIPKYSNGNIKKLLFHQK
Briefly: Antagonist activity at human GR expressed in CHO-K1 cells assessed as reduction in dexamethasone-induced response incubated for 20 hrs by luciferase reporter gene assay. A general note: Reporter assays use an easily measured gene product as a stand-in for the process of interest.

In data set [2] the target is T1, Glucocorticoid receptor. Briefly: Agonist activity at human GR expressed in CHO-K1 cells incubated for 20 hrs by luciferase reporter gene assay.
The target of data set [3] is T2, glucocorticoid receptor (GR) (Homo sapiens, UniProt P04150).
T2 sequence (P04150 whole entry): T1 sequence (P04150 whole entry)
Briefly: Agonist activity at human GR expressed in CHO-K1 cells incubated for 20 hrs by luciferase reporter gene assay relative to dexamethasone. To be noted: CHO-K1 cells expressing human GR.

For data set [4], the target named is T3, Androgen receptor (Homo sapiens, UniProt P10275).
T3 sequence (P10275 whole entry): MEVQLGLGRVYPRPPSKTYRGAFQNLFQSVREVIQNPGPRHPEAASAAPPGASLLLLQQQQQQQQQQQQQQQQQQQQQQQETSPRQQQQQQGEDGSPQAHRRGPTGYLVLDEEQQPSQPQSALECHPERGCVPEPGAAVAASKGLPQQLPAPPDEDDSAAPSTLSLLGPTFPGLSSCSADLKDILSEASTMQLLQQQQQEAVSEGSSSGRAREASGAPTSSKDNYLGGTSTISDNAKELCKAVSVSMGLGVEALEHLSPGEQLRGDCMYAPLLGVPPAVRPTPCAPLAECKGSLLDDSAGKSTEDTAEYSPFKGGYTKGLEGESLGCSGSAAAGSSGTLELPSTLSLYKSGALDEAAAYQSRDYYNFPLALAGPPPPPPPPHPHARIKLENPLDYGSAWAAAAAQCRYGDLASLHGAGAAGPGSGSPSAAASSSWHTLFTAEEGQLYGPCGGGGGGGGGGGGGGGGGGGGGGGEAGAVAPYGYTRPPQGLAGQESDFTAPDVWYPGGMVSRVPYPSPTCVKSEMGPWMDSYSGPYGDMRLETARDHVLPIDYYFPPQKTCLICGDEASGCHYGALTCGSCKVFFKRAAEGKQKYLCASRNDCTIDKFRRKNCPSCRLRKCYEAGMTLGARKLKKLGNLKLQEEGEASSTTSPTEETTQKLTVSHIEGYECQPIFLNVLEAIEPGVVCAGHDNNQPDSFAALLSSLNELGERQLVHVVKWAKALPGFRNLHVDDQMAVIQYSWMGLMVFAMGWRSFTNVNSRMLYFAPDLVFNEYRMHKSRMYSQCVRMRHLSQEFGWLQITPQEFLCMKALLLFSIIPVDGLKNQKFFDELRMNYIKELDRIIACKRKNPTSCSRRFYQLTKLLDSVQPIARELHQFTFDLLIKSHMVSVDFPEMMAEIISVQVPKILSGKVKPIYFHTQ
Briefly: Agonist activity at AR (unknown origin) expressed in human LNCaP cells incubated for 20 hrs by luciferase reporter gene assay.

For data set [5], the target named is T4, androgen receptor (AR) (Homo sapiens, UniProt P10275).
T4 sequence (P10275 whole entry): T3 sequence (P10275 whole entry)
Briefly: Agonist activity at AR (unknown origin) expressed in human LNCaP cells incubated for 20 hrs by luciferase reporter gene assay relative to mifepristone. The settings on record: human LNCaP cells expressing AR.

For the molecule `CC#C[C@]1(O)CC[C@H]2[C@@H]3CCC4=CC(=O)CCC4=C3[C@@H](c3cccc(N(C)C)c3)C[C@@]21C`, in data set [1], the IC50 turned out to be 64 nM. Moreover, the EC50 in data set [2] and in data set [4] was above 2500 nM each time. Moreover, the Emax at 20 h in data set [3] is 1.5%; in data set [5], 5.8%.

Consider `CCC#C[C@]1(O)CC[C@H]2[C@@H]3CCC4=CC(=O)CCC4=C3[C@@H](c3ccc(N(C)C)cc3)C[C@@]21C`, for which, in data set [1], the half-inhibitory concentration (IC50) came out at 8.5 nM. Moreover, the EC50 is above 2500 nM in data set [2] and 30 nM in data set [4]. Besides, the Emax at 20 h in data set [3] is 2.1%; in data set [5], 101%.

As for `CC#C[C@]1(O)CC[C@H]2[C@@H]3CCC4=CC(=O)CCC4=C3[C@@H](C3CCCCC3)C[C@@]21C`, the IC50 in data set [1] was determined as 18.1 nM. The half-maximal effective concentration (EC50) in data set [2] and in data set [4] was above 2500 nM throughout. Further, the Emax at 20 h amounted to 9.3% in data set [3] and 26% in data set [5].

With `CC(C)c1ccc([C@H]2C[C@@]3(C)[C@@H](CC[C@@]3(O)C#CC(C)(C)C)[C@@H]3CCC4=CC(=O)CCC4=C32)cc1`, in data set [1], the concentration for half-maximal inhibition (IC50) was 16 nM. The 50% effective concentration (EC50) in data set [2] and in data set [4] was above 2500 nM in each case. Besides, the results for the Emax at 20 h in data set [3] and in data set [5] were 1.5% and 25%, respectively.

For `CN(C)c1c(F)cc([C@H]2C[C@@]3(C)[C@@H](CC[C@@]3(O)C#CC(C)(C)C)[C@@H]3CCC4=CC(=O)CCC4=C32)cc1F`, the IC50 in data set [1] was determined as 43 nM. The concentration for a half-maximal effect (EC50) in data set [2] and in data set [4] was above 2500 nM each time. Besides, the Emax at 20 h came to 1.3% in data set [3] and 8.8% in data set [5].

`CN(C)c1ccc([C@H]2C[C@@]3(C)[C@@H](CC[C@@]3(O)C#CC(C)(C)C)[C@@H]3CCC4=CC(=O)CC[C@@H]4[C@H]32)cc1`: the IC50 in data set [1] was 5.6 nM. The EC50 in data set [2] was above 2500 nM; in data set [4], 224 nM. The Emax at 20 h was determined as 2.2% in data set [3] and 22% in data set [5].

Turning to `CC(C)C#C[C@]1(O)CC[C@H]2[C@@H]3CCC4=CC(=O)CCC4=C3[C@@H](c3ccc(N(C)C)cc3)C[C@@]21C`, the IC50 in data set [1] is 26 nM. For the same molecule, the half-maximal effective concentration (EC50) in data set [2] and in data set [4] was above 2500 nM throughout. Also, the maximal response (Emax) at 20 h in data set [3] was 1.8%; in data set [5], 50%.

In the case of `Cc1cc([C@H]2C[C@@]3(C)[C@@H](CC[C@@]3(O)C#CC(C)(C)C)[C@@H]3CCC4=CC(=O)CCC4=C32)ccc1N(C)C`, the IC50 in data set [1] came out at 28 nM. The EC50 in data set [2] and in data set [4] was above 2500 nM each time. Further, the Emax at 20 h in data set [3] came to 1.2%; in data set [5] it was 17%.

Turning to `CC(C)(C)C#C[C@]1(O)CC[C@H]2[C@@H]3CCC4=CC(=O)CCC4=C3[C@@H](c3ccc(N4CCS(=O)(=O)CC4)cc3)C[C@@]21C`, the IC50 in data set [1] amounted to 16.7 nM. The concentration for a half-maximal effect (EC50) in data set [2] and in data set [4] was above 2500 nM each time. The Emax at 20 h in data set [3] stood at 1.8%; in data set [5], 23%.

As for `CN(C)c1cccc([C@H]2C[C@@]3(C)[C@@H](CC[C@@]3(O)C#CC(C)(C)C)[C@@H]3CCC4=CC(=O)CCC4=C32)c1`, the IC50 in data set [1] amounted to 205 nM. In addition, the half-maximal effective concentration (EC50) in data set [2] and in data set [4] was above 2500 nM throughout. The Emax at 20 h in data set [3] turned out to be 1.3%; in data set [5], 7.5%.

In the case of `CC#C[C@]1(O)CC[C@H]2[C@@H]3CCC4=CC(=O)CCC4=C3[C@@H](CC)C[C@@]21C`, the IC50 in data set [1] is above 5000 nM. Also, the EC50 is 57 nM in data set [2] and above 2500 nM in data set [4]. For the same molecule, the maximal response (Emax) at 20 h in data set [3] stood at 36%; in data set [5], 47%.

Turning to `CN(C)c1ccc([C@H]2C[C@@]3(C)[C@@H](CC[C@@]3(O)C#CC(F)(F)F)[C@@H]3CCC4=CC(=O)CCC4=C32)cc1`, the concentration for half-maximal inhibition (IC50) in data set [1] is 11.2 nM. Also, the EC50 was above 2500 nM in data set [2] and 54 nM in data set [4]. For the same molecule, the maximal response (Emax) at 20 h in data set [3] stood at 2.4%; in data set [5] it was 117%.
